Where two headings read alike, the source gives them in different places.
What was measured:
[1] = system: intracellular Ca^2+ stores; test: Ca2+ release from intracellular stores (FURA-2AM loaded cells); assay type: cell-based; design: key to Ca^2+ (Ca^2+ release from intracellular stores): a “+” denotes release; a “+/−” denotes inconclusive
Description: As a non-limiting example, compounds 1272 and 1273 (set forth in Table 1) were synthesized starting from 3-bromoaniline, which upon condensation with hydroxylamine and chloral hydrate followed by concentrated sulfuric acid yielded an inseparable regioisomeric mixture of 4- and 6-bromo isatins. The addition of the two phenyl groups to the three position of the oxindole allowed easy chromatographic separation of the 4- and 6-bromo-3,3-diphenyloxindoles 1272 and 1273. Table 1 sets forth biological data for diaryloxindole compounds including, but not limited to 1272 and 1273. For Tables 1-14, Ca^2+ refers to Ca^2+ release from intracellular stores where a “+” denotes release and a “+/−” denotes inconclusive; eIF2α-P refers to phosphorylation of eIF2α measured by Western blot; SRB refers to the inhibitory concentration to reduce cell growth by 50% (IC50) for growth inhibition of A549 lung cancer cells; and n.d. is not determined.
Without intending to be bound by theory, the mechanism of action of translation initiation inhibitors is set forth in FIG. 1, and includes the depletion (complete or partial depletion) of intracellular calcium (Ca^2+) stores and phosphorylation of eIF2α. Compounds synthesized using the approaches described herein were screened for their ability to partially deplete intracellular Ca^2+ stores using FURA-2AM loaded cells (Benzaquen et al. (1995) Nature Medicine, 1:534, incorporated herein by reference in its entirety for all purposes). A limited subset of compounds were further screened for their ability to deplete endoplasmic reticulum (ER) Ca^2+. The Ca^2+ content of the ER was monitored using ER-targeted, Ca^2+ sensitive, recombinant proteins. These recombinant proteins emitted light by fluorescent resonance energy transfer (FRET) as a function of the Ca^2+ content of the medium. Such assays are previously described (Miyawaki, A.; Mizuno, H.; Llopis, J.; Tsien, R. Y.; Jalink, K. Cameleons as cytosolic and intra-organellar calcium probes, Oxford University Press: Oxford, London, 2001; pp 3-16, incorporated herein by reference in its entirety for all purposes). Compounds that depleted Ca^2+ were further evaluated for their ability to phosphorylate eIF2α. eIF2α phosphorylation was measured by Western blot analysis using the phospho-specific anti-eIF2α antibody, as previously described (Aktas et al. (1998) Proc. Natl. Acad. Sci. USA, 95:8280, incorporated herein by reference in its entirety for all purposes).

A549 lung cancer cells = test: SRB growth inhibition of A549 lung cancer cells; assay type: cell-based, human; settings: A549 lung cancer cells, unit inferred, read-out: SRB (IC50 for growth inhibition of A549 lung cancer cells)
Description: As a non-limiting example, compounds 1272 and 1273 (set forth in Table 1) were synthesized starting from 3-bromoaniline, which upon condensation with hydroxylamine and chloral hydrate followed by concentrated sulfuric acid yielded an inseparable regioisomeric mixture of 4- and 6-bromo isatins. The addition of the two phenyl groups to the three position of the oxindole allowed easy chromatographic separation of the 4- and 6-bromo-3,3-diphenyloxindoles 1272 and 1273. Table 1 sets forth biological data for diaryloxindole compounds including, but not limited to 1272 and 1273. For Tables 1-14, Ca^2+ refers to Ca^2+ release from intracellular stores where a “+” denotes release and a “+/−” denotes inconclusive; eIF2α-P refers to phosphorylation of eIF2α measured by Western blot; SRB refers to the inhibitory concentration to reduce cell growth by 50% (IC50) for growth inhibition of A549 lung cancer cells; and n.d. is not determined. […]

SMILES	Ca^2+ (Ca^2+ release from intracellular stores) [1]	IC50 (A549 lung cancer cells) [µM]	IC50 (A549 lung cancer cells; Homo sapiens) [µM]
CC(C)(C)c1ccc(OS(=O)(=O)CC23CCC(CC2=O)C3(C)C)c(C2(c3ccccc3)C(=O)Nc3ccccc32)c1 (stereo not shown) [Compound 1319]	+	2	–
COc1ccc(C2(c3ccc(OC)cc3O)C(=O)Nc3ccccc32)c(O)c1 [Compound 1163]	+	10	–
CC(C)(C)c1ccc(O)c(C2(c3ccccc3)C(=O)Nc3cccc(Cl)c32)c1 (stereo not shown) [Compound 1428]	+	3	–
CC(C)(C)c1ccc(S(=O)(=O)Nc2ccc(O)c(C3(c4ccccc4)C(=O)Nc4ccccc43)c2)cc1 (stereo not shown) [Compound 1638]	+	3	–
CC(C)(C)c1ccc(O)c(C2(c3ccccc3)C(=O)Nc3c(Br)cccc32)c1 (stereo not shown) [Compound 1196]	+	3	–
CC(C)(C)c1ccc(O)c(C2(c3ccccc3)C(=O)Nc3ccc(N=[N+]=[N-])cc32)c1 (stereo not shown) [Compound 1348]	+	3	–
CC(C)(C)c1ccc(OC(=O)CCCCCCC(=O)O)c(C2(c3ccccc3)C(=O)Nc3ccccc32)c1 (stereo not shown) [Compound 1321]	+	16	–
CC(C)(C)c1ccc(O)c(C2(c3c(F)c(F)c(F)c(F)c3F)C(=O)Nc3ccccc32)c1 (stereo not shown) [Compound 1328]	+	3	–
O=C1NC(=O)C(Cc2ccc(O)c(C3(c4ccccc4)C(=O)Nc4ccccc43)c2)S1 (stereo not shown) [Compound 1220]	+/−	16	–
O=C1Nc2ccccc2C1(c1ccc(O)cc1)c1ccc(-c2ccccc2)cc1 (stereo not shown) [Compound 1261]	+	10	–
O=C1Nc2ccc(OC(F)(F)F)cc2C1(c1ccccc1)c1ccccc1 [Compound 1263]	+	8	–
CC(C)(C)c1ccc(O)c(C2(c3cc(C(C)(C)C)ccc3O)C(=O)Nc3ccccc32)c1 [Compound 1195]	+	3	–
CC(C)(C)c1ccc(O)c(C2(c3ccccc3)C(=O)Nc3cc(Cl)ccc32)c1 (stereo not shown) [Compound 1429]	+	3	–
[N-]=[N+]=NCCCCOc1ccc(O)c(C2(c3ccccc3)C(=O)Nc3ccccc32)c1 (stereo not shown) [Compound 1219]	+	5	–
Cc1cc(C2(c3ccccc3)C(=O)Nc3ccccc32)c(NS(C)(=O)=O)cc1O (stereo not shown) [Compound 1427]	+	14	–
CC(C)(C)c1ccc(O)c(C2(c3cccs3)C(=O)Nc3ccccc32)c1 (stereo not shown) [Compound 1222]	+	9	–
CC(C)(C)c1ccc(S(=O)(=O)Nc2cc(O)ccc2C2(c3ccccc3)C(=O)Nc3ccccc32)cc1 (stereo not shown) [Compound 1623]	+	< 1	–
C=CCN1C(=O)C(c2ccccc2)(c2ccccc2)c2ccccc21 [Compound 1303]	+/−	15	–
CC(C)(C)c1ccc(O)c(C2(c3ccccc3)C(=O)Nc3ccc(NS(=O)(=O)c4cccc5ccccc45)cc32)c1 (stereo not shown) [Compound 1238]	+/−	3	–
CCCc1ccc(C2(c3ccccc3)C(=O)Nc3ccccc32)cc1 (stereo not shown) [Compound 1296]	+	11	–

SMILES	Ca^2+ (Ca^2+ release from intracellular stores) [1]	IC50 (A549 lung cancer cells) [µM]	IC50 (A549 lung cancer cells; Homo sapiens) [µM]
O=C1Nc2ccccc2C1(c1ccccc1)c1cc(O)ccc1O (stereo not shown) [Compound 1201]	+	–	–
CN1C(=O)C(c2ccccc2)(c2ccccc2)c2ccccc21 [Compound 1301]	+	–	–
C=CCCCOc1ccc(O)c(C2(c3ccccc3)C(=O)Nc3ccccc32)c1 (stereo not shown) [Compound 1202]	+	6	–
CN(C)CCCCOc1ccc(O)c(C2(c3ccccc3)C(=O)Nc3ccccc32)c1 (stereo not shown) [Compound 1216]	+/−	> 20	–
CN(C)c1ccc(C2(c3ccc(O)cc3)C(=O)Nc3ccccc32)cc1 (stereo not shown) [Compound 1262]	+/−	10	–
CN(C)CCCCOc1cccc(C2(c3ccccc3)C(=O)Nc3ccccc32)c1O (stereo not shown) [Compound 1199]	+	> 20	–
CC(C)(C)c1cccc(C2(n3ccnc3)C(=O)Nc3ccccc32)c1 (stereo not shown) [Compound 1318]	+	2	–
[N-]=[N+]=NCCCCOc1cccc(C2(c3ccccc3)C(=O)Nc3ccccc32)c1O (stereo not shown) [Compound 1200]	+	3	–
O=C1Nc2ccccc2C1(c1cccc(Cl)c1)n1ccnc1 (stereo not shown) [Compound 1314]	+	> 20	–
COC(=O)C(N)Cc1ccc(O)c(C2(c3ccccc3)C(=O)Nc3ccccc32)c1 (stereo not shown) [Compound 1171]	+	–	–
O=C1Nc2ccccc2C1(c1ccc(O)cc1)c1ccc(Oc2ccccc2)cc1 (stereo not shown) [Compound 1260]	+	12	–
O=C1Nc2ccccc2C1(c1ccccc1)c1cc(OCCCCBr)ccc1O (stereo not shown) [Compound 1203]	+	8	–
Cc1cc(O)c(NS(=O)(=O)c2ccc(C(C)(C)C)cc2)cc1C1(c2ccccc2)C(=O)Nc2ccccc21 (stereo not shown) [Compound 1648]	+	–	–
CC(C)(C)c1cccc(C2(c3ccc(O)cc3)C(=O)Nc3ccccc32)c1 (stereo not shown) [Compound 1232]	+	4	–
CC(C)(C)c1ccc(S(=O)(=O)Nc2ccc(C3(c4ccccc4)C(=O)Nc4ccccc43)c(O)c2)cc1 (stereo not shown) [Compound 1624]	+	< 1	–
CC(C)(C)c1ccc(O)c(C2(c3ccccc3)CNc3ccccc32)c1 (stereo not shown) [Compound 1182]	+	12	–
CC(C)(C)c1ccc(O)c(C2(c3ccccc3)C(=O)Nc3ccc(F)cc32)c1 (stereo not shown) [Compound 1312]	+	4	–
CC(C)(C)c1ccc(OC(=O)CCCC(=O)NO)c(C2(c3ccccc3)C(=O)Nc3ccccc32)c1 (stereo not shown) [Compound 1323]	+	3	–
Cc1cc2c(c(C3(c4ccccc4)C(=O)Nc4ccccc43)c1)NCC2 (stereo not shown) [Compound 1313]	+	–	> 20
NCCCCOc1ccc(O)c(C2(c3ccccc3)C(=O)Nc3ccccc32)c1 (stereo not shown) [Compound 1228]	+	5	–

Reference: patent US8044089B2, “3-3-di-substituted-oxindoles as inhibitors of translation initiation” (President and Fellows of Harvard College, priority 2004, dated 2011)
